# “And” between values parts separate entries of the source, which are not always exact repeats. Equal entries are not always repeated. Where two headings read alike, the source gives them in different places.
# Biological target: T1, avidin (AV) (Gallus gallus, UniProt P02701)
# T1 construct: purchased Calbiochem (La Jolla, CA)
# Assay: Stopped-flow association kinetics of dye-labeled biotin probes binding to avidin (F(t), rF(t); Arrhenius plots/global fitting)
# Set-up: ln(k) / dS+ / dG+ / Eon for BFl / b of the line y = m1x+b1: unit not given here
# Settings: for k(average): k (full value); for ΔG^ǂ / ΔS^ǂ: forward; for kcal/mol (from Arrhenius slope): the values are: Ea forward; for Temperature at which the rate constants of AV and SAV reacting with BcO are the same, x: crossing of the AV and SAV lines; for half-time of association, rF¯(t) / halftime of association, rF¯(t): probe 20 nM; for half-time of association, rF¯(t): AV 260 nM
# Description: These reactions were carried out in a buffered solution of 10 mM Tris-HCl, 100 mM KCl, 2.5 mM MgCl2 and 1 mM CaCl2 at pH 8 and only AV-BcO reactions included pH 9 and 10. The concentrations, after mixing, were of 20 nM of dye-labeled B7 probe and 260 nM, 520 nM or 1040 nM of AV; and 200 nM, 300 nM, 400 nM or 800 nM of SAV at temperatures of 10, 15, 20 and 25°C. The deglycosylation of AV (for comparative association reactions) was carried out using the provided standard protocol with endoglycosidase H [47], both with and without incubation of a denaturant solution (2% SDS and 1M 2-mercaptoethanol).
# The reactions were collected with the SF instrument, described previously. The fluorescence signal was collected through a 520 nm interference filter (Oriel Corp., Stratford, CT) with a detector time constant and SF dead time of 1 μs and 1 ms, respectively. The excitation light was provided by the Coherent Ar^+ ion laser (described above) at 488 nm with […] of incident power on the reaction cuvette. The laser source was followed by the photo-elastic modulator described above with the axis oriented 45^o with respect to the electric vector of the incident light and with the half-wave modulation (50 kHz) set for 488 nm excitation. The demodulation circuitry following the photomultiplier provided a DC(t) and a rectified AC(t) which were converted to digital data by a high-speed digitizer (PCI-5122) from National Instruments (Austin, TX) with 14-bit resolution and 100 MHz bandwidth, through channels 0 and 1. The data acquisition was controlled by LabVIEW (Vr 8) software at a collection rate of 6120 data points/second and stored in spreadsheets. The AC(t) and DC(t) data were baseline corrected before obtaining the signal ratio (Eq 4) as a function of time (ρt).
# The constant AGain is the instrumental amplitude gain and was evaluated by solving ρ(t) using the known steady state anisotropy (rss) of the complexes which is equivalent to the r(t) at t = ∞; and H, obtained from the equivalent grating factor (G) for the filters and photo multiplier tubes in the SF. For the probes used in here G was 0.82 and H = (1-G)/(1+G) = 0.099. Knowing Again and H, the AC(t) and DC(t) signals can be solved for r(t) and F(t) (Eqs 4 and 5) and the normalized fluorescence, F¯(t) , and corrected fluorescence anisotropy, rF¯(t), were obtained when F¯(0) and rF¯(0) were scaled to 1 at t = 0.
# The F¯(t) (Eq 6) is equivalent to (I||) + 2 (I⊥) and proportional to quantum yield (QYi), molar absorptivity (εi) and to the formation or disappearance of the emitting species Xi(t); and rF¯(t) including the steady state anisotropies (rss) of each fluorescent species (Eq 7).
# The possible reaction models were discriminated by the squared residuals of the observed and calculated association traces of both fluorescence and anisotropy fluorescence signals, F¯(t) and rF¯(t) , respectively.
# T1 sequence (P02701 25-152): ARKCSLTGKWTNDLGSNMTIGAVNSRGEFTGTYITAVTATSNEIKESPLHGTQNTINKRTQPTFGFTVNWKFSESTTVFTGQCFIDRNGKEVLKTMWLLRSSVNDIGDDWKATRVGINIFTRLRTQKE
compound,measurement,setting,value
"NC(CCCCNC(=O)CCCC[C@@H]1SC[C@@H]2NC(=O)N[C@@H]21)C(=O)NCCCCCNC(=O)c1ccc(-c2c3cc(F)c(=O)cc-3oc3cc(O)c(F)cc23)c(C(=O)O)c1 (stereo partly drawn) [BcO, Oregon green 488 Biocytin]",kon,"AV, pH 9, 15 (288.15 K), k (scaled)",3.4e+06 M⁻¹ s⁻¹
same,ln(k),"AV, pH 9, 20 (293.15 K)",15.5
same,k(average),"AV, pH 9, 20 (293.15 K)",5.37E+06
same,kon,"AV, pH 9, 20 (293.15 K), k (scaled)",5.4e+06 M⁻¹ s⁻¹
same,ln(k),"AV, pH 9, 25 (298.15 K)",15.9
same,k(average),"AV, pH 9, 25 (298.15 K)",7.85E+06
same,kon,"AV, pH 9, 25 (298.15 K), k (scaled)",7.9e+06 M⁻¹ s⁻¹
same,ΔG^ǂ,"AV, pH 9",4.7 ± 0.1 kcal/mol
same,ΔS^ǂ,"AV, pH 9",30.9 ± 2.5 cal/°K·mol
same,Ea^Forward,"AV, pH 10",14.9 ± 0.7 kcal/mol
same,ln(k),"AV, pH10, 10 (283.15 K)",14.5
same,k(average),"AV, pH10, 10 (283.15 K)",1.93E+06
same,kon,"AV, pH10, 10 (283.15 K), k (scaled)",1.9e+06 M⁻¹ s⁻¹
same,ln(k),"AV, pH10, 15 (288.15 K)",14.9
same,k(average),"AV, pH10, 15 (288.15 K)",2.97E+06
same,kon,"AV, pH10, 15 (288.15 K), k (scaled)",3e+06 M⁻¹ s⁻¹
same,ln(k),"AV, pH10, 20 (293.15 K)",15.4
same,k(average),"AV, pH10, 20 (293.15 K)",4.75E+06
same,kon,"AV, pH10, 20 (293.15 K), k (scaled)",4.7e+06 M⁻¹ s⁻¹
same,ln(k),"AV, pH10, 25 (298.15 K)",15.8
same,k(average),"AV, pH10, 25 (298.15 K)",7.23E+06
same,kon,"AV, pH10, 25 (298.15 K), k (scaled)",7.2e+06 M⁻¹ s⁻¹
same,ΔG^ǂ,"AV, pH 10",4.7 ± 0.3 kcal/mol
same,ΔS^ǂ,"AV, pH 10",34.1 ± 1.3 cal/°K·mol
same,slope (Arrhenius linear fit),"AV, ph8",-7283
same,slope (Arrhenius linear fit),"AV, ph9",-6979.6
same,kcal/mol (from Arrhenius slope),"AV, ph9",13.9 kcal/mol
same,slope (Arrhenius linear fit),"AV, ph10",-7486
same,kcal/mol (from Arrhenius slope),"AV, ph10",14.9 kcal/mol
same,"Temperature at which the rate constants of AV and SAV reacting with BcO are the same, x",,52.1 °C
same,"Temperature at which the rate constants of AV and SAV reacting with BcO are the same, x",x=(b1-b2)/(m2-m1) inverted,325.2 °K
same,kon,"pH 8, AV 260 nM, 10°C, pH 8, read-out: kon AV-BcO F¯(t)",2.4e+06 ± 100000 M⁻¹ s⁻¹
same,kon,"pH 8, AV 260 nM, 10°C, pH 8, read-out: kon AV-BcO r¯F(t)",2.7e+06 ± 100000 M⁻¹ s⁻¹
same,kon,"pH 8, AV 260 nM, 15°C, pH 8, read-out: kon AV-BcO F¯(t)",4.1e+06 ± 100000 M⁻¹ s⁻¹
same,kon,"pH 8, AV 260 nM, 15°C, pH 8, read-out: kon AV-BcO r¯F(t)",4e+06 ± 100000 M⁻¹ s⁻¹
same,kon,"pH 8, AV 260 nM, 20°C, pH 8, read-out: kon AV-BcO F¯(t)",5.7e+06 ± 100000 M⁻¹ s⁻¹
same,kon,"pH 8, AV 260 nM, 20°C, pH 8, read-out: kon AV-BcO r¯F(t)",5.9e+06 ± 100000 M⁻¹ s⁻¹
same,kon,"pH 8, AV 260 nM, 25°C, pH 8, read-out: kon AV-BcO F¯(t)",9.5e+06 ± 100000 M⁻¹ s⁻¹
same,kon,"pH 8, AV 260 nM, 25°C, pH 8, read-out: kon AV-BcO r¯F(t)",9.5e+06 ± 100000 M⁻¹ s⁻¹
same,kon,"pH 8, AV 520 nM, 10°C, pH 8, read-out: kon AV-BcO F¯(t)",2.6e+06 ± 200000 M⁻¹ s⁻¹
same,kon,"pH 8, AV 520 nM, 10°C, pH 8, read-out: kon AV-BcO r¯F(t)",2.7e+06 ± 100000 M⁻¹ s⁻¹
same,kon,"pH 8, AV 520 nM, 15°C, pH 8, read-out: kon AV-BcO F¯(t)",4e+06 ± 100000 M⁻¹ s⁻¹
same,kon,"pH 8, AV 520 nM, 15°C, pH 8, read-out: kon AV-BcO r¯F(t)",3.8e+06 ± 100000 M⁻¹ s⁻¹
same,kon,"pH 8, AV 520 nM, 20°C, pH 8, read-out: kon AV-BcO F¯(t)",5.9e+06 ± 300000 M⁻¹ s⁻¹
same,kon,"pH 8, AV 520 nM, 20°C, pH 8, read-out: kon AV-BcO r¯F(t)",5.8e+06 ± 100000 M⁻¹ s⁻¹
same,kon,"pH 8, AV 520 nM, 25°C, pH 8, read-out: kon AV-BcO F¯(t)",9.5e+06 ± 300000 M⁻¹ s⁻¹
same,kon,"pH 8, AV 520 nM, 25°C, pH 8, read-out: kon AV-BcO r¯F(t)",9.5e+06 ± 100000 M⁻¹ s⁻¹
same,kon,"pH 8, AV 1040 nM, 10°C, pH 8, read-out: kon AV-BcO F¯(t)",2.5e+06 ± 200000 M⁻¹ s⁻¹
same,kon,"pH 8, AV 1040 nM, 10°C, pH 8, read-out: kon AV-BcO r¯F(t)",2.7e+06 ± 100000 M⁻¹ s⁻¹
same,kon,"pH 8, AV 1040 nM, 15°C, pH 8, read-out: kon AV-BcO F¯(t)",3.9e+06 ± 200000 M⁻¹ s⁻¹
same,kon,"pH 8, AV 1040 nM, 15°C, pH 8, read-out: kon AV-BcO r¯F(t)",4e+06 ± 200000 M⁻¹ s⁻¹
same,kon,"pH 8, AV 1040 nM, 20°C, pH 8, read-out: kon AV-BcO F¯(t)",6e+06 ± 100000 M⁻¹ s⁻¹
same,kon,"pH 8, AV 1040 nM, 20°C, pH 8, read-out: kon AV-BcO r¯F(t)",6.1e+06 ± 100000 M⁻¹ s⁻¹
same,kon,"pH 8, AV 1040 nM, 25°C, pH 8, read-out: kon AV-BcO F¯(t)",9.7e+06 ± 300000 M⁻¹ s⁻¹
same,kon,"pH 8, AV 1040 nM, 25°C, pH 8, read-out: kon AV-BcO r¯F(t)",9.4e+06 ± 200000 M⁻¹ s⁻¹
same,kon,"pH 8, AV, Arrhenius plot, 23°C and pH 8, read-out: kon",7.8e+06 ± 4e+11 M⁻¹ s⁻¹
same,kon,"pH 8, AV, pH 8, 10°C, read-out: kon",2.6e+06 ± 300000 M⁻¹ s⁻¹
same,kon,"pH 8, AV, pH 8, 15°C, read-out: kon",3.9e+06 ± 300000 M⁻¹ s⁻¹
same,kon,"pH 8, AV, pH 8, 20°C, read-out: kon",5.9e+06 ± 400000 M⁻¹ s⁻¹
same,kon,"pH 8, AV, pH 8, 25°C, read-out: kon",9.5e+06 ± 400000 M⁻¹ s⁻¹
same,kon,"pH 9, AV, pH 9, 10°C, read-out: kon",2.3e+06 ± 100000 M⁻¹ s⁻¹
same,kon,"pH 9, AV, pH 9, 15°C, read-out: kon",3.4e+06 ± 100000 M⁻¹ s⁻¹
same,kon,"pH 9, AV, pH 9, 20°C, read-out: kon",5.4e+06 ± 200000 M⁻¹ s⁻¹
same,kon,"pH 9, AV, pH 9, 25°C, calculated from an Arrhenius plot, read-out: kon",7.9e+06 ± 300000 M⁻¹ s⁻¹
same,kon,"pH 10, AV, pH 10, 10°C, read-out: kon",1.9e+06 ± 100000 M⁻¹ s⁻¹
same,kon,"pH 10, AV, pH 10, 15°C, read-out: kon",3e+06 ± 100000 M⁻¹ s⁻¹
same,kon,"pH 10, AV, pH 10, 20°C, read-out: kon",4.8e+06 ± 200000 M⁻¹ s⁻¹
same,kon,"pH 10, AV, pH 10, 25°C, calculated from an Arrhenius plot, read-out: kon",7.2e+06 ± 300000 M⁻¹ s⁻¹
same,"half-time of association, rF¯(t)","pH 8, 10°C",1024 ms
same,"half-time of association, rF¯(t)","pH 8, 15°C",695 ms
same,"half-time of association, rF¯(t)","pH 8, 20°C",452 ms and 455 ms
same,"half-time of association, rF¯(t)","pH 8, 25°C",280 ms
same,"halftime of association, rF¯(t)","AV 520 nM, pH 8, 20°C",229 ms
same,"halftime of association, rF¯(t)","AV 1040 nM, pH 8, 20°C",109 ms
same,kon,"untreated AV, 15°C, read-out: kon",3.9e+06 M⁻¹ s⁻¹
